According to patent US20170105953A1, “METHOD FOR SUPPRESSING DIABETES AND/OR HEPATIC LIPIDS USING TORMENTIC ACID” (priority 2015, published 2017):
Several values for one entry are separate records, joined by “and”; a condition that tells them apart may be missing. Equal values may be shown once.

Key:
[1] = blood parameters in high-fat diet-fed mice; type: in vivo; details: HF diet-fed C57BL/6J mice; for blood glucose / circulating TG (triglyceride) levels: week 12; for circulating TG (triglyceride) levels: vs HF group; for Blood profiles: FFA (plasma free fatty acid) / Blood profiles: Insulin / Blood profiles: Leptin / Blood profiles: TC (total cholesterol): mean ± SE, n=9
Protocol: For part 2, C57BL/6J mice (4 weeks old) were obtained from the National Laboratory Animal Breeding and Research Center. The mice were divided randomly into two groups after 7 days acclimation. […] The compositions of the experimental diets are given in previous studies. After 8 weeks, the high-fat treated mice were randomly subdivided into four groups (n=9) including PTA1 (0.06 g/kg/day), PTA2 (0.12 g/kg/day) or rosiglitazone (Rosi; 1% methylcellulose, 10 mg/kg body weight) (GlaxoSmithKline) or vehicle and treated by oral gavage one time per day from the 9th to 12th weeks, while the mice were still on the high-fat diet, whereas the CON and high-fat control (HF) mice were treated with vehicle only. At the end, food was withheld from the animals (from 10 p.m. to 10 a.m.). The next day, the mice were sacrificed for blood and tissue collection and analysis. Livers, skeletal muscles, and white adipose tissues (WATs) (including epididymal, mesenteric, and retroperitoneal WAT) were weighed and excised, followed by immediate freezing, and kept at −80° C. for target gene analysis. Heparin (30 units/mL) (Sigma) was added to blood samples. Plasma samples were collected within 30 min by centrifugation at 1600 g for 15 min at 4° C. Plasma was obtained for insulin and leptin assay.
Blood samples (0.8 mL) were collected from the retro-orbital sinus of fasted mice, and the glucose level was analyzed by the glucose oxidase method (model 1500; Sidekick Glucose Analyzer; YSI Inc., Yellow Springs, Ohio, USA). Plasma triglycerides (TG), total cholesterol (TC), and free fatty acids (FFA) were measured using commercial assay kits according to the manufacturer's directions (Triglycerides-E test, Cholesterol-E test, and FFA-C test, Wako Pure Chemical, Osaka, Japan). The levels of insulin and leptin in blood were analyzed by ELISA using a commercial assay kit according to the manufacturer's directions (mouse insulin ELISA kit, Sibayagi, Gunma, Japan; and mouse leptin ELISA kit, Morinaga, Yokohama, Japan).

[2] = hepatic lipids in high-fat diet-fed mice; type: in vivo; details: HF diet-fed C57BL/6J mice, mean ± SE, n=9
Text: For part 2, C57BL/6J mice (4 weeks old) were obtained from the National Laboratory Animal Breeding and Research Center. The mice were divided randomly into two groups after 7 days acclimation. The control (CON) group (n=9) was fed a low-fat diet (diet 12450B, Research Diets, Inc., New Brunswick, N.J., USA), whereas the experimental group was fed a 45% high-fat diet (diet 12451, Research Diets, Inc.) for 12 weeks. The compositions of the experimental diets are given in previous studies. After 8 weeks, the high-fat treated mice were randomly subdivided into four groups (n=9) including PTA1 (0.06 g/kg/day), PTA2 (0.12 g/kg/day) or rosiglitazone (Rosi; 1% methylcellulose, 10 mg/kg body weight) (GlaxoSmithKline) or vehicle and treated by oral gavage one time per day from the 9th to 12th weeks, while the mice were still on the high-fat diet, whereas the CON and high-fat control (HF) mice were treated with vehicle only. At the end, food was withheld from the animals (from 10 p.m. to 10 a.m.). The next day, the mice were sacrificed for blood and tissue collection and analysis. Livers, skeletal muscles, and white adipose tissues (WATs) (including epididymal, mesenteric, and retroperitoneal WAT) were weighed and excised, followed by immediate freezing, and kept at −80° C. for target gene analysis. Heparin (30 units/mL) (Sigma) was added to blood samples. Plasma samples were collected within 30 min by centrifugation at 1600 g for 15 min at 4° C. Plasma was obtained for insulin and leptin assay.
Hepatic lipids were extracted using a previously described protocol. For the hepatic lipid extraction, 0.375 g liver samples were homogenized with 1 mL of distilled water for 5 min. Finally, the dried pellet was resuspended in 0.5 mL of ethanol and analyzed using a triglycerides kit as used for serum lipids.

PEPCK = assay: semiquantitative RT-PCR, liver PEPCK mRNA; type: in vivo, C57BL/6J mice; details: HF diet-fed mice, normalized to GAPDH, vs HF group
Text: (§1) For part 2, C57BL/6J mice (4 weeks old) were obtained from the National Laboratory Animal Breeding and Research Center. The mice were divided randomly into two groups after 7 days acclimation. The control (CON) group (n=9) was fed a low-fat diet (diet 12450B, Research Diets, Inc., New Brunswick, N.J., USA), whereas the experimental group was fed a 45% high-fat diet (diet 12451, Research Diets, Inc.) for 12 weeks. The compositions of the experimental diets are given in previous studies. […]
(§2) Total RNA from the liver tissue was isolated with a Trizol reagent (Molecular Research Center, Inc., Cincinnati, Ohio, USA) according to the manufacturer's directions. The integrity of the extracted total RNA was examined by 2% agarose gel electrophoresis, and the RNA concentration was determined by ultraviolet (UV) light absorbency at 260 and 280 nm (spectrophotometer U-2800A, Hitachi). […] The relative density of the band was evaluated using AlphaDigiDoc 1201 software (Alpha Innotech Co., San Leandro, Calif., USA). All of the measured PCR products were normalized to the amount of cDNA of GAPDH in each sample. […]

DGAT2 = assay: semiquantitative RT-PCR, liver DGAT2 mRNA; type: in vivo, C57BL/6J mice; details: HF diet-fed mice, normalized to GAPDH, vs HF group
Text: as §1, §2

11β-HSD1 = assay: semiquantitative RT-PCR, liver 11β-HSD1 mRNA; type: in vivo, C57BL/6J mice; details: HF diet-fed mice, normalized to GAPDH, vs HF group
Text: as §1, §2

SREBP1c = assay: semiquantitative RT-PCR, liver SREBP1c mRNA; type: in vivo, C57BL/6J mice; details: HF diet-fed mice, normalized to GAPDH, vs HF group
Text: as §1, §2

[3] = PTA1 0.06 g/kg/day oral gavage 4 weeks
[4] = PTA2 0.12 g/kg/day oral gavage 4 weeks

C[C@@H]1CC[C@]2(C(=O)O)CC[C@]3(C)C(=CC[C@@H]4[C@@]5(C)C[C@@H](O)[C@H](O)C(C)(C)[C@@H]5CC[C@]43C)[C@@H]2[C@]1(C)O [PTA, tormentic acid]
blood glucose [1, 3]: 96.3 mg/dL
circulating TG (triglyceride) levels [1, 3]: decreased
Blood profiles: FFA (plasma free fatty acid) [1, 3]: 2.15 ± 0.35 mequiv/L
Blood profiles: Insulin [1, 3]: 101.7 ± 15.2 μU/mL
Blood profiles: Leptin [1, 3]: 2.35 ± 0.092 ng/mL
Blood profiles: TC (total cholesterol) [1, 3]: 167.0 ± 6.1 mg/dL
blood glucose [1, 4]: 94.8 mg/dL
circulating TG (triglyceride) levels [1, 4]: decreased
Blood profiles: FFA (plasma free fatty acid) [1, 4]: 1.88 ± 0.29 mequiv/L
Blood profiles: Insulin [1, 4]: 73.9 ± 11.8 μU/mL
Blood profiles: Leptin [1, 4]: 1.78 ± 0.094 ng/mL
Blood profiles: TC (total cholesterol) [1, 4]: 153.7 ± 6.9 mg/dL
Liver lipids: Total lipid [2, 3]: 80.1 ± 4.6 mg/g
Liver lipids: Triacylglycerol [2, 3]: 51.7 ± 5.1 µmol/g
Liver lipids: Total lipid [2, 4]: 68.2 ± 5.9 mg/g
Liver lipids: Triacylglycerol [2, 4]: 35.2 µmol/g and 35.2 ± 4.9 µmol/g
mRNA level of PEPCK in liver (PEPCK; PTA1 0.06 g/kg/day 4 weeks): significantly decrease
mRNA level of PEPCK in liver (PEPCK; PTA2 0.12 g/kg/day 4 weeks): significantly decrease
mRNA level of DGAT2 in liver (DGAT2; PTA1 0.06 g/kg/day 4 weeks): significantly decrease
mRNA level of DGAT2 in liver (DGAT2; PTA2 0.12 g/kg/day 4 weeks): significantly decrease
mRNA level of 11β-HSD1 in liver (11β-HSD1; PTA1 0.06 g/kg/day 4 weeks): significantly decrease
mRNA level of 11β-HSD1 in liver (11β-HSD1; PTA2 0.12 g/kg/day 4 weeks): significantly decrease
mRNA level of SREBP1c in liver (SREBP1c; PTA1 0.06 g/kg/day 4 weeks): significantly decrease
mRNA level of SREBP1c in liver (SREBP1c; PTA2 0.12 g/kg/day 4 weeks): significantly decrease
